We go through 24 molecules from ChEMBL document CHEMBL5442175, “EUbOPEN Chemogenomics Library - PDSP Secondary Binding” (2024).

Counter-ions that a name gives are not always drawn. Bounds are passed on as bounds.

The target in experiment [1] is 5-hydroxytryptamine receptor 1D (Homo sapiens, UniProt P28221). Briefly: PDSP Secondary Binding target: HTR1D - Compounds are tested at 10 uM concentration, plate are incubated at room temperature in the dark for 90 minutes. Reaction are stopped by vacuum filtration onto 0.3% polyethyleneimine soaked filter mats using Filtermate harvester. Scintillation cocktail is then melted onto microwave-dried filters on a hot plate and the radio activity is counted in Microbia counter.
Sequence of 5-hydroxytryptamine receptor 1D (P28221 whole entry): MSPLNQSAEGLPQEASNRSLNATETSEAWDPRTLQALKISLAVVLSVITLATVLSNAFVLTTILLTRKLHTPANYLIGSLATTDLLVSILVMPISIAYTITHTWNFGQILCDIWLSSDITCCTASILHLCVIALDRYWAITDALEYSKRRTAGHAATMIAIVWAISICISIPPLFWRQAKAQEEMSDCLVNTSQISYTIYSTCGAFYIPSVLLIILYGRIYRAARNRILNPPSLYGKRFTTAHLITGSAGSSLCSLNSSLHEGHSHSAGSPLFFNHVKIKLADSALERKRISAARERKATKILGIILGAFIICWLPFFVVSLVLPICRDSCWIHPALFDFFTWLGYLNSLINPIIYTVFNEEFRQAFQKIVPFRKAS

In experiment [2] the target is 5-hydroxytryptamine receptor 7 (Homo sapiens, UniProt P34969). Briefly: PDSP Secondary Binding target: HTR7 - Compounds are tested at 10 uM concentration, plate are incubated at room temperature in the dark for 90 minutes. Reaction are stopped by vacuum filtration onto 0.3% polyethyleneimine soaked filter mats using Filtermate harvester. Scintillation cocktail is then melted onto microwave-dried filters on a hot plate and the radio activity is counted in Microbia counter.
Sequence of 5-hydroxytryptamine receptor 7 (P34969 whole entry): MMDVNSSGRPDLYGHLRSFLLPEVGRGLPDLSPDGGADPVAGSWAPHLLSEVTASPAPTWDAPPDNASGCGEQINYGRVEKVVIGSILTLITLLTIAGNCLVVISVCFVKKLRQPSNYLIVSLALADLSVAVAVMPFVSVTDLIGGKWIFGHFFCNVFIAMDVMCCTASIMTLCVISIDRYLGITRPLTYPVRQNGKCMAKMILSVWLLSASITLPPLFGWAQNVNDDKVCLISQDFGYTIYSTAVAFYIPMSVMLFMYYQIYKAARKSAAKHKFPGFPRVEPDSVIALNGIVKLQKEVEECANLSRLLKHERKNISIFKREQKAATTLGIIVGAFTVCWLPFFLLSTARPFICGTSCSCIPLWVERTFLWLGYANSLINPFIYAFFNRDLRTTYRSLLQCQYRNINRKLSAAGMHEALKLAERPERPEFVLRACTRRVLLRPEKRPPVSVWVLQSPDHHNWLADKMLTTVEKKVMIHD

For experiment [3], the target named is Sodium-dependent noradrenaline transporter (Homo sapiens, UniProt P23975). Briefly: PDSP Secondary Binding target: SLC6A2 - Compounds are tested at 10 uM concentration, plate are incubated at room temperature in the dark for 90 minutes. Reaction are stopped by vacuum filtration onto 0.3% polyethyleneimine soaked filter mats using Filtermate harvester. Scintillation cocktail is then melted onto microwave-dried filters on a hot plate and the radio activity is counted in Microbia counter.
Sequence of Sodium-dependent noradrenaline transporter (P23975 whole entry): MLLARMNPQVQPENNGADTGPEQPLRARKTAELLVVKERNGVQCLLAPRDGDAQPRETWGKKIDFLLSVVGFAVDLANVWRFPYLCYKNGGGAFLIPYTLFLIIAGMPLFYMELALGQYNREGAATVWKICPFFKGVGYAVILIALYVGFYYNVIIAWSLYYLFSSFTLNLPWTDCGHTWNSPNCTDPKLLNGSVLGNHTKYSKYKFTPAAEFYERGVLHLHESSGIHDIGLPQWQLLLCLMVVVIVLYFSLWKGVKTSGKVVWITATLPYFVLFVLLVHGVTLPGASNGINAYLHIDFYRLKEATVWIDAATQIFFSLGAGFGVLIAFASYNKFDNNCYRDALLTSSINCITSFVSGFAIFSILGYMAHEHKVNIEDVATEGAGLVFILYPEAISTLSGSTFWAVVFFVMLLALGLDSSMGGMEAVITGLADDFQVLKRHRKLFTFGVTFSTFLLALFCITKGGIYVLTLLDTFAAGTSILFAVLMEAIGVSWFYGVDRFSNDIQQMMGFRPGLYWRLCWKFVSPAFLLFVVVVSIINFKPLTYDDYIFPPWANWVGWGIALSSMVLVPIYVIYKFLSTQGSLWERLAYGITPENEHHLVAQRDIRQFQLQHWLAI

Experiment [4] deals with 5-hydroxytryptamine receptor 2B (Homo sapiens, UniProt P41595). In words: PDSP Secondary Binding target: HTR2B - Compounds are tested at 10 uM concentration, plate are incubated at room temperature in the dark for 90 minutes. Reaction are stopped by vacuum filtration onto 0.3% polyethyleneimine soaked filter mats using Filtermate harvester. Scintillation cocktail is then melted onto microwave-dried filters on a hot plate and the radio activity is counted in Microbia counter.
Sequence of 5-hydroxytryptamine receptor 2B (P41595 whole entry): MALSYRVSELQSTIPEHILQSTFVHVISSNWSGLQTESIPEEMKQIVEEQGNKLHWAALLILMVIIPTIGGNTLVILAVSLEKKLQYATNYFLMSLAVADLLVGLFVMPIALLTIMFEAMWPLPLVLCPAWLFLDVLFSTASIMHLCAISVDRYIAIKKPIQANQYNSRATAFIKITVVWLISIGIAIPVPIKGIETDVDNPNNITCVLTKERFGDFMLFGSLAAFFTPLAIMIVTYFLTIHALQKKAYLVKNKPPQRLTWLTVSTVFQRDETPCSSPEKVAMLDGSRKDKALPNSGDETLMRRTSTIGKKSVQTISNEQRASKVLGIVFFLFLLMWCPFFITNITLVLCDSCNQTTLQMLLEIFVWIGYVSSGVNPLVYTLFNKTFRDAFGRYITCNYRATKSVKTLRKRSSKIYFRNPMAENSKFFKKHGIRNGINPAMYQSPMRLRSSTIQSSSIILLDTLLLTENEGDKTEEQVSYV

Experiment [5] has as its target T1, Alpha-2B adrenergic receptor (Homo sapiens, UniProt P18089).
T1 sequence (P18089 whole entry): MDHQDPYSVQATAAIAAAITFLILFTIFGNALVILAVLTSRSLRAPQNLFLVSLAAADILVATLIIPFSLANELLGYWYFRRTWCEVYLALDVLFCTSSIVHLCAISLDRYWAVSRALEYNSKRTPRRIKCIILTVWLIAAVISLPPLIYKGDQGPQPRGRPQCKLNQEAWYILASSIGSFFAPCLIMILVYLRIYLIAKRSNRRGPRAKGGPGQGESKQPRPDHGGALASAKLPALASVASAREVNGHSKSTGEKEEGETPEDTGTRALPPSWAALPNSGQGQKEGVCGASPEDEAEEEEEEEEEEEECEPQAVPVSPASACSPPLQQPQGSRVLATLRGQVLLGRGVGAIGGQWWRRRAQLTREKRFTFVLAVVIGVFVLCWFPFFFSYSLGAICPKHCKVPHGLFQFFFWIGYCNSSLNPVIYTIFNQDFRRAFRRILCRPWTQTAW
Briefly: PDSP Secondary Binding target: ADRA2B - Compounds are tested at 10 uM concentration, plate are incubated at room temperature in the dark for 90 minutes. Reaction are stopped by vacuum filtration onto 0.3% polyethyleneimine soaked filter mats using Filtermate harvester. Scintillation cocktail is then melted onto microwave-dried filters on a hot plate and the radio activity is counted in Microbia counter.

In experiment [6] the target is T2, Alpha-2C adrenergic receptor (Homo sapiens, UniProt P18825).
T2 sequence (P18825 whole entry): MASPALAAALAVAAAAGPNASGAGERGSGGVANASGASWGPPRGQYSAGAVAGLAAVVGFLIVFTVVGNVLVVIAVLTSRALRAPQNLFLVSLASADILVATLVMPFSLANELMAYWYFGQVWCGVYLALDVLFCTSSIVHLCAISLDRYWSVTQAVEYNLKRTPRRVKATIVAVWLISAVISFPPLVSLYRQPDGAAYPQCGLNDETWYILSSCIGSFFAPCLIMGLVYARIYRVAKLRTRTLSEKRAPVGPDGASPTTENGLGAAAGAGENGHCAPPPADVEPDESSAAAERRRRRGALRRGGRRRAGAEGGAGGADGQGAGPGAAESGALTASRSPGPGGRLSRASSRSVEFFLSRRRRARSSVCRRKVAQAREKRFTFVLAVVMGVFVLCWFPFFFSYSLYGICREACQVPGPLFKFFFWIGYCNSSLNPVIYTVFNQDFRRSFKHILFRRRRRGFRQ
In words: PDSP Secondary Binding target: ADRA2C - Compounds are tested at 10 uM concentration, plate are incubated at room temperature in the dark for 90 minutes. Reaction are stopped by vacuum filtration onto 0.3% polyethyleneimine soaked filter mats using Filtermate harvester. Scintillation cocktail is then melted onto microwave-dried filters on a hot plate and the radio activity is counted in Microbia counter.

Experiment [7] addresses T3, 5-hydroxytryptamine receptor 2C (Homo sapiens, UniProt P28335).
T3 sequence (P28335 whole entry): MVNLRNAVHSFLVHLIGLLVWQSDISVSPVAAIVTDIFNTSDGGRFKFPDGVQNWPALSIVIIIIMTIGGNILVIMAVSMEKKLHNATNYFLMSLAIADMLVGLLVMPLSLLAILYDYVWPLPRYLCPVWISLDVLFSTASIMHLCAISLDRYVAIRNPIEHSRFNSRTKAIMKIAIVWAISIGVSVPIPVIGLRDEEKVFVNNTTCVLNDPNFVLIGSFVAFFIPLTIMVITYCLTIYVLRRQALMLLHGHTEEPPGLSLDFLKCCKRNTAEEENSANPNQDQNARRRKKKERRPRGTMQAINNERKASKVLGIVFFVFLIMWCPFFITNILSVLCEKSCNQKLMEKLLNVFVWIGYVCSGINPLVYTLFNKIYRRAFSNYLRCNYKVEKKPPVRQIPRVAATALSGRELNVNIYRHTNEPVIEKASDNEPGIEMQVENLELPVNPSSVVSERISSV
Briefly: PDSP Secondary Binding target: HTR2C - Compounds are tested at 10 uM concentration, plate are incubated at room temperature in the dark for 90 minutes. Reaction are stopped by vacuum filtration onto 0.3% polyethyleneimine soaked filter mats using Filtermate harvester. Scintillation cocktail is then melted onto microwave-dried filters on a hot plate and the radio activity is counted in Microbia counter.

The target in the next experiment is Histamine H1 receptor (Homo sapiens, UniProt P35367). In words: PDSP Secondary Binding target: HRH1 - Compounds are tested at 10 uM concentration, plate are incubated at room temperature in the dark for 90 minutes. Reaction are stopped by vacuum filtration onto 0.3% polyethyleneimine soaked filter mats using Filtermate harvester. Scintillation cocktail is then melted onto microwave-dried filters on a hot plate and the radio activity is counted in Microbia counter.
Sequence of Histamine H1 receptor (P35367 whole entry): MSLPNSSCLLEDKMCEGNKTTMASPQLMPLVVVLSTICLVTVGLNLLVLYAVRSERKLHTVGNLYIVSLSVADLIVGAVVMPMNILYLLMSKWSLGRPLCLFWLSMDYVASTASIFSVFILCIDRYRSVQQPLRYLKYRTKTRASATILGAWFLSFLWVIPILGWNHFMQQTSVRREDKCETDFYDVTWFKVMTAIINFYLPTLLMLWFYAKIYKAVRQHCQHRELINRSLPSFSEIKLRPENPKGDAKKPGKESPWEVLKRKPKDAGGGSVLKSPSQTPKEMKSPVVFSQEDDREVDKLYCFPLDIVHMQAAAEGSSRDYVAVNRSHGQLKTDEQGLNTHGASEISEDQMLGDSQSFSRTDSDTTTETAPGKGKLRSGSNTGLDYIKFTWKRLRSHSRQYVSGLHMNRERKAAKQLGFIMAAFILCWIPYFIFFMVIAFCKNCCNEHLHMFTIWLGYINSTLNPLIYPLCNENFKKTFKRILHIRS

Experiment [8] concerns the target 5-hydroxytryptamine receptor 1B (Homo sapiens, UniProt P28222). In words: PDSP Secondary Binding target: HTR1B - Compounds are tested at 10 uM concentration, plate are incubated at room temperature in the dark for 90 minutes. Reaction are stopped by vacuum filtration onto 0.3% polyethyleneimine soaked filter mats using Filtermate harvester. Scintillation cocktail is then melted onto microwave-dried filters on a hot plate and the radio activity is counted in Microbia counter.

Sequence of 5-hydroxytryptamine receptor 1B (P28222 whole entry): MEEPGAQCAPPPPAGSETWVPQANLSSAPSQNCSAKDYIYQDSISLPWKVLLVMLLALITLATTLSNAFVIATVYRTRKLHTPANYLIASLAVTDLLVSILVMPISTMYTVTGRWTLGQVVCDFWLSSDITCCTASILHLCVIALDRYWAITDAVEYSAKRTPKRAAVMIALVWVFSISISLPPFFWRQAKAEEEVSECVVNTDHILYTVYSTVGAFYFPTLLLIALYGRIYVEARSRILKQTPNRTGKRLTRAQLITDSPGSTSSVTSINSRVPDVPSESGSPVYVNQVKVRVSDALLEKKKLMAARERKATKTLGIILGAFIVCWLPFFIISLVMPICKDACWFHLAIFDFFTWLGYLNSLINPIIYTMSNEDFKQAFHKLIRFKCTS

As to `CN1C2CCC1CC(OC(c1ccc(F)cc1)c1ccc(F)cc1)C2` (stereo unspecified), the inhibitory constant (Ki) stood at 1130 nM in experiment [1], 126 nM in experiment [2] and 769 nM in [3].

For the molecule `COc1cccc([C@@H](C)NCCCc2ccccc2Cl)c1` [TECALCET HYDROCHLORIDE], the inhibition constant Ki in [3] amounted to 1930 nM; in experiment [4], 43 nM; in experiment [5] it was 955 nM; in experiment [6], 1580 nM; in experiment [7], 162 nM; at Histamine H1 receptor, 909 nM.

For the molecule `NC[C@@H]1O[C@H](C23CC4CC(CC(C4)C2)C3)Cc2c1ccc(O)c2O`, the Ki turned out to be 951 nM in experiment [3], 890 nM in experiment [5] and 71.7 nM in experiment [6].

For `CCCCN1CCC(COC(=O)c2cc(Cl)c(N)c3c2OCCO3)CC1`, the Ki in [1] is 3780 nM; in experiment [4], 52 nM; in [6], 673 nM; in [7] it was 635 nM; on Histamine H1 receptor it was 4660 nM.

Turning to `CCOC(=O)c1c(C)[nH]c2ccc3c(c12)CN1CCc2cc(OC)ccc2C1O3` (stereo unspecified), the Ki in experiment [8] came to 2160 nM; in experiment [3], 2850 nM; in experiment [4], 500 nM; in [5] it was 3230 nM; in experiment [6] it was 585 nM.

Consider `CN1CCCC(n2nc(Cc3ccc(Cl)cc3)c3ccccc3c2=O)CC1` (stereo unspecified) [AZELASTINE HYDROCHLORIDE], for which the Ki worked out at 4230 nM in [8], 885 nM in [1], 385 nM in experiment [2] and 230 nM in experiment [5].

Regarding `C[C@@H](NCCCc1cccc(C(F)(F)F)c1)c1cccc2ccccc12` [CINACALCET HYDROCHLORIDE], the Ki in experiment [1] is 1700 nM; in experiment [2], 571 nM; in [3], 1450 nM; in experiment [4], 39.7 nM; in experiment [6] it was 1570 nM; in experiment [7], 658 nM.

On to `O=S1(=O)c2cccc3cccc(c23)N1CCCN1CCN(c2ccc(F)cc2)CC1` [FANANSERIN], for which the Ki in experiment [2] is 744 nM; in experiment [3], over 10000 nM; in [5], 667 nM; in [6] it was 1030 nM; on Histamine H1 receptor, 30.6 nM.

Consider `CN1CCN(c2ccc(Nc3c4ccccc4nc4ccccc34)cc2)CC1`, for which the Ki in experiment [1] was found to be 1620 nM; in [2], 414 nM; in experiment [3] it was 120 nM; on Histamine H1 receptor it was 403 nM.

Take `Cc1nc(-c2ccc(-c3ccc(C(=O)N4CCc5cc6c(cc54)C4(CCN(C)CC4)CO6)cc3)c(C)c2)no1` [SB-224289]: the Ki stood at 1730 nM in experiment [3], 2170 nM in experiment [5] and 859 nM in [7].

As for `CCCCCNC(=N)N/N=C/c1c[nH]c2ccc(OC)cc12` [TEGASEROD MALEATE], the Ki in experiment [1] came out at 50.1 nM; in [4] it was 15.6 nM; in experiment [5] it was 2840 nM; in [7], 142 nM.

Take `COc1ccc(NS(=O)(=O)c2sc3ccc(Cl)cc3c2C)cc1N1CCNCC1`: the Ki in experiment [1] was 1080 nM; in experiment [3] it was 5620 nM; in experiment [4] it was 804 nM; in [7] it was 1280 nM.

Turning to `CN1C[C@H](C(=O)N[C@]2(C)O[C@@]3(O)[C@@H]4CCCN4C(=O)[C@H](Cc4ccccc4)N3C2=O)C[C@@H]2c3cccc4[nH]cc(c34)C[C@H]21` [DIHYDROERGOTAMINE MESYLATE], the inhibitory constant (Ki) worked out at 108 nM in experiment [8], 60.2 nM in experiment [2] and 214 nM in [7].

Consider `Cc1c(P(=S)(c2ccccc2)c2ccccc2)n2ccccc2[n+]1C/C=C/c1ccccc1`, for which the results for the Ki (in experiment [3]; in experiment [6]; at Histamine H1 receptor) were 956 nM, 222 nM and over 10000 nM, respectively.

Consider `CN(C)C(=O)N[C@H]1CC[C@H](CCN2CCN(c3cccc(Cl)c3Cl)CC2)CC1` [CARIPRAZINE HYDROCHLORIDE], for which the inhibitory constant (Ki) in [8] was determined as 129 nM; in experiment [1], 76.8 nM; in experiment [2], 76.1 nM; in experiment [5], 1090 nM; in experiment [6] it was 234 nM; in experiment [7], 1250 nM.

Consider `CCc1cc2c(cc1CC)CC(NC[C@H](O)c1ccc(O)c3[nH]c(=O)ccc13)C2` [INDACATEROL], for which the Ki was determined as 569 nM in experiment [3] and 1800 nM in [7].

As to `Cc1cc(C)cc(-c2cnc3cc(Cl)c(-c4cccc(O)c4)cc3c2OCCCN)c1`, the Ki in [1] stood at 292 nM; in experiment [2], 2180 nM; in [3] it was 5810 nM; in experiment [6] it was 846 nM.

Take `CCc1ccc(OCc2ccccc2C(=O)Nc2ccc3nc(C)cc(N)c3c2)cc1`: the Ki is 2780 nM in experiment [1], 227 nM in experiment [4], 3140 nM in experiment [5] and 328 nM in experiment [7].

As for `CN1CCC(=C2c3ccccc3CC(=O)c3sccc32)CC1` [KETOTIFEN FUMARATE], the inhibition constant Ki came to 1750 nM in experiment [8] and 407 nM in experiment [2].

With `COc1ccc(NC(=O)c2ccc(-c3ccc(-c4noc(C)n4)cc3C)cc2)cc1OCCN(C)C`, the Ki in [8] worked out at 1.18 nM; in [1], 15 nM; in [2] it was 1100 nM; in [3], 664 nM; in experiment [5], 667 nM; in [6] it was 704 nM. Further, the Ki in experiment [7] came out at 264 nM.

With `COc1cc(-n2cnc3cc(-c4ccc(Cl)cc4)sc3c2=O)ccc1OCCN1CCCC1`, the results for the Ki in experiment [1], in experiment [4] and in experiment [7] were 3560 nM, 528 nM and 893 nM, respectively.

Take `OCc1cc(C(O)CNCCCCCCOCCCCc2ccccc2)ccc1O` (stereo unspecified) [SALMETEROL]: the Ki in [8] came out at 1990 nM; in [1] it was 1040 nM; in [2], 257 nM; in experiment [3], 382 nM; in experiment [5] it was 1940 nM; in experiment [7] it was 4090 nM.

With `Cc1nn(C)c(C)c1-c1cccc2c1CC[C@H](N(C)C)C2`, the inhibition constant (Ki) amounted to 10.2 nM in [8], 5.5 nM in [1], 2.3 nM in [2] and 108 nM in [5].

As for `Cc1ccc2c(c1)c1c(n2CCc2ccc(C)nc2)CCN(C)C1` [LATREPIRDINE], the Ki turned out to be 419 nM in [1]; 14.7 nM in [2]; 603 nM in experiment [4]; 45.8 nM in experiment [5]; 2920 nM in [6].

The term Ki denotes a dissociation constant, usually derived from enzyme kinetics or from competition with a known ligand.
